From PubChem BioAssay AID624129 (Sanford-Burnham Center for Chemical Genomics, 2012)
Calls of active or inactive are those of the source. How the calls were made is not given here.

How the values were obtained:
Assay in all cases: CXCR6 receptor antagonists, dose response, cell-based, beta-arrestin, DiscoveRx, APJ panel, uHTS hits (AID 624129)
[1] = target: Beta-galactosidase (Escherichia coli) (UniProt Q8VNN2); conditions: CXCR6 beta-arrestin (DiscoveRx) antagonist cell assay, b-galactosidase
[2] = target: C-X-C chemokine receptor type 6 (Homo sapiens) (UniProt O00574); conditions: CXCR6 beta-arrestin (DiscoveRx) antagonist cell assay; for inhibition: CXCR6, run 1, dose range 2, at 80 µM (top of the series)
[3] = target: C-C chemokine receptor type 6 (Homo sapiens) (UniProt P51684); conditions: CXCR6 beta-arrestin (DiscoveRx) antagonist cell assay
[4] = target: Apelin receptor (Homo sapiens) (UniProt P35414); conditions: CXCR6 beta-arrestin (DiscoveRx) antagonist cell assay, APJ
[5] = dose range 1, mean IC50 across replicates
[6] = CXCR6, dose range 1, mean IC50 across replicates
[7] = CCR6, dose range 1, mean IC50 across replicates

C-X-C chemokine receptor type 6 (Homo sapiens), sequence (O00574 whole entry, looked up): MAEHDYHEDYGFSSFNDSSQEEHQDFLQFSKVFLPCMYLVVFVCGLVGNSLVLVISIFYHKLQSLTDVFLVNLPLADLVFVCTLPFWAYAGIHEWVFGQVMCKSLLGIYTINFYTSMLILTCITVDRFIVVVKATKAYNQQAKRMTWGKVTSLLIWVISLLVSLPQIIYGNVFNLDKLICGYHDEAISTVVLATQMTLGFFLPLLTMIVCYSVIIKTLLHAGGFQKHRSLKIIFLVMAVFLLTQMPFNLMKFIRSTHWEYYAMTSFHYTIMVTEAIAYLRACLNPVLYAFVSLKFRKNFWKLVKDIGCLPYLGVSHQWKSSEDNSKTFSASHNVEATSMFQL
Beta-galactosidase (Escherichia coli), sequence (Q8VNN2 whole entry, looked up): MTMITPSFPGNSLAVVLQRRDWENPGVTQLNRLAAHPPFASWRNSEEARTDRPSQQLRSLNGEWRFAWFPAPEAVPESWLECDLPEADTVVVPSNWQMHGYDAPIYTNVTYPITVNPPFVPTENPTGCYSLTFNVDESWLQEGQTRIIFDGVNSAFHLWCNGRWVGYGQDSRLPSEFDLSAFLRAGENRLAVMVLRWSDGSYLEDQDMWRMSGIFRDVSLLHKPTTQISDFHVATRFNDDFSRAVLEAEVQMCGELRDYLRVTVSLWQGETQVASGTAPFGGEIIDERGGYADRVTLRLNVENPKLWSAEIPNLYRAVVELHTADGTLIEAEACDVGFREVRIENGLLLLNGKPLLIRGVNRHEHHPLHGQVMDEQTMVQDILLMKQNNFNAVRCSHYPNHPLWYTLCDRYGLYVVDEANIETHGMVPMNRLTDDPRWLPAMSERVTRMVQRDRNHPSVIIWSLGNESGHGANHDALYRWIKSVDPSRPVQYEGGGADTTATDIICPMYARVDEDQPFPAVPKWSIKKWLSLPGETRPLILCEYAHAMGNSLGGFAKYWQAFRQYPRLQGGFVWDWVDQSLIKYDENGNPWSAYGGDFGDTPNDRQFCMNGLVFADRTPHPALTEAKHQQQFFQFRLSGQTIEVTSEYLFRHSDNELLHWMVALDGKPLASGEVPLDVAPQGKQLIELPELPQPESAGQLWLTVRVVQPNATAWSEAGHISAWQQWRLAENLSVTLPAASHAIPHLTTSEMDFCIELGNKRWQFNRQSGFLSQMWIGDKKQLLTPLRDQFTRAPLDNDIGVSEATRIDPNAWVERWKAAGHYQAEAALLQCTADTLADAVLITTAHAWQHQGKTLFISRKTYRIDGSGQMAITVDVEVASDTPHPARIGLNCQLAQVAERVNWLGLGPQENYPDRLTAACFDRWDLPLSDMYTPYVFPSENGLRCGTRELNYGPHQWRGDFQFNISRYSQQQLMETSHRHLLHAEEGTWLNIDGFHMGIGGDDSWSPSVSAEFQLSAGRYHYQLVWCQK

SMILES | IC50 ([1]; dose range 1) | IC50 [1, 5] | IC50 ([2]; CXCR6, dose range 1) | IC50 [2, 6] | IC50 ([2]; CXCR6, run 1, dose range 2) | IC50 ([2]; CXCR6, run 2, dose range 1) | IC50 ([2]; CXCR6, run 2, dose range 2) | IC50 ([3]; CCR6, dose range 1) | IC50 [3, 7] | IC50 ([3]; CCR6, run 2, dose range 1) | IC50 ([4]; dose range 1) | IC50 [4, 5] | IC50 ([4]; run 2, dose range 1) | IC50 ([4]; run 3, dose range 1) | inhibition [2]
CCn1c(Cl)c(C=O)s/c1=N\S(=O)(=O)c1ccccc1 | > 80 µM (inactive) | > 80 µM | 4.78 µM | 4.9 µM | 5.1 µM | 5.14 µM | 4.58 µM | 3.16 µM | 3.63 µM | 4.09 µM | 6.85 µM | 5.99 µM | 5.55 µM | 5.57 µM | –
Cc1ccc(C(=O)Sc2cccccc2=O)cc1 | > 80 µM (inactive) | > 80 µM | 1.08 µM | 1.44 µM | – | 1.79 µM | – | 1.18 µM | 1.55 µM | 1.92 µM | 1.05 µM | 2.38 µM | 4.56 µM | 1.52 µM | 42.3%
CCOC(=O)c1c(SCCN2CCCCC2)n(-c2ccccc2)c(=S)n(-c2ccccc2)c1=O | > 80 µM (inactive) | > 80 µM | 11.1 µM | 8.58 µM | – | 6.03 µM | – | 4.56 µM | 5.9 µM | 7.23 µM | 5.99 µM | 6.77 µM | 7.04 µM | 7.28 µM | 130%
COc1ccc(C2CC(c3c(O)n(CCc4ccccc4)c(=O)[nH]c3=O)=NN2)cc1OC (configuration not stated) | inactive | 52 µM | inactive | 14.2 µM | 6.37 µM | 22.4 µM | 8.63 µM | 14.8 µM | 18 µM | 21.2 µM | 10.5 µM | 14.3 µM | 22.1 µM | 10.4 µM | –
O=C(Nc1nnc(SCc2ccc(F)cc2)s1)c1ccccn1 | > 80 µM (inactive) | > 80 µM | – | 4.08 µM | 5.5 µM | 3.49 µM | 3.25 µM | 4.29 µM | 4.53 µM | 4.78 µM | 3.1 µM | 3.6 µM | 3.87 µM | 3.84 µM | –
Cc1cc(Cl)n2c(nc3cc(F)c(F)cc32)c1C#N | > 80 µM (inactive) | > 80 µM | inactive | 24.8 µM | 6.21 µM | 53 µM | 6.06 µM | 7.09 µM | 9.8 µM | 12.5 µM | – | > 80 µM | > 80 µM | > 80 µM | –
C=C1C(=O)C23C(O)C1CCC2C12CCCC(C)(COC(C)=O)C1C(O)C3(O)OC2 (configuration not stated) | > 80 µM (inactive) | > 80 µM | 6.64 µM | 6.29 µM | 6.49 µM | 6.24 µM | 5.8 µM | 5.19 µM | 5.59 µM | 6 µM | 9 µM | 8.77 µM | 7.67 µM | 9.63 µM | –
COCc1cc(=O)[nH]c(Nc2nc3ccc(C)cc3o2)n1 | > 80 µM (inactive) | > 80 µM | – | 3.61 µM | 3.3 µM | > 80 µM | 3.93 µM | 3.97 µM | 4.52 µM | 5.08 µM | 4.2 µM | 7.6 µM | > 80 µM | 11 µM | –
CC1(C)CC(=O)C(C=Nc2ccc(C(=O)c3ccccc3)cc2N=CC2=C(O)CC(C)(C)CC2=O)=C(O)C1 | > 80 µM (inactive) | > 80 µM | inactive | 11.2 µM | 0.963 µM | 36.3 µM | 2.7 µM | 3.9 µM | 5.09 µM | 6.27 µM | inactive | 60 µM | 62.7 µM | 75.9 µM | –
CCOc1ccc(NC(=O)CN(C)S(=O)(=O)c2cccs2)cc1 | > 80 µM (inactive) | > 80 µM | > 80 µM (inactive) | > 80 µM | – | > 80 µM | – | – | > 80 µM | > 80 µM | – | > 80 µM | > 80 µM | > 80 µM | -28%
CCOC(=O)c1c(C)oc2c1c(C=NCc1ccccn1)c(O)c1ccccc12 | > 80 µM (inactive) | > 80 µM | 4.14 µM | 3.58 µM | 1.54 µM | 6.74 µM | 1.9 µM | 7.01 µM | 5.66 µM | 4.3 µM | 12.3 µM | 12.3 µM | > 80 µM | > 80 µM | –
O=C(C#Cc1ccccc1)c1ccco1 | > 80 µM (inactive) | > 80 µM | 11.8 µM | 9.68 µM | 9.59 µM | 9.18 µM | 8.16 µM | 9.49 µM | 9.89 µM | 10.3 µM | 16.1 µM | 14 µM | 13.1 µM | 12.8 µM | –
CN(C)c1nc(=NCc2ccco2)ss1 | > 80 µM (inactive) | > 80 µM | inactive | 55.9 µM | – | 33.6 µM | – | 43.4 µM | 38.8 µM | 34.2 µM | 31.8 µM | 24.9 µM | 18.1 µM | > 80 µM | 82.8%
C=C(CN(C)C)C(=O)c1ccc(OC2OC(COC(C)=O)C(OC(C)=O)C(OC(C)=O)C2OC(C)=O)cc1 (configuration not stated) | > 80 µM (inactive) | > 80 µM | inactive | 22.3 µM | – | 20.9 µM | – | 24.5 µM | 23.2 µM | 21.9 µM | 38.4 µM | 38.9 µM | 37.8 µM | 40.5 µM | 135%
CC(=O)Nc1ccc(Sc2ccc([N+](=O)[O-])o2)cc1 | > 80 µM (inactive) | > 80 µM | 13.7 µM | 10.7 µM | 9.08 µM | 8.84 µM | 11.3 µM | 9.21 µM | 8.82 µM | 8.44 µM | 14.2 µM | 14.4 µM | 15.4 µM | 13.6 µM | –
Cn1c(=O)c([N+](=O)[O-])c(Cl)c2ccccc21 | > 80 µM (inactive) | > 80 µM | inactive | 22.2 µM | – | > 80 µM | – | 16.2 µM | 21.7 µM | 27.1 µM | 16.4 µM | 29.4 µM | 42.5 µM | > 80 µM | 116%
CCC(C)c1ccc(O)c(NC(=S)NC(=O)c2cccnc2)c1 (configuration not stated) | inactive | 56 µM | inactive | 12.9 µM | 8.01 µM | 20.2 µM | 12.9 µM | 7.67 µM | 12 µM | 16.3 µM | 8.9 µM | 11.3 µM | 14.6 µM | 10.5 µM | –
